Reference: patent US10420341B2, “Herbicidal phenylpyrimidines” (BASF SE, priority 2015, dated 2019)

Assays:
[1] = test system: AMARE; assay: greenhouse post-emergence herbicidal test; assay type: in vivo, Amaranthus retroflexus; conditions: post-emergence method, scale from 0 to 100
Excerpt: (§1) The seeds of the test plants were sown separately for each species. For the post-emergence treatment, the test plants were first grown to a height of 3 to 15 cm, depending on the plant habit, and only then treated with the active ingredients which had been suspended or emulsified in water. For this purpose, the test plants were either sown directly and grown in the same containers, or they were first grown separately as seedlings and transplanted into the test containers a few days prior to treatment. Depending on the species, the plants were kept at 10-25° C. or 20-35° C., respectively. The test period extended over 2 to 4 weeks. During this time, the plants were tended, and their response to the individual treatments was evaluated. Evaluation was carried out using a scale from 0 to 100. 100 means no emergence of the plants, or complete destruction of at least the aerial moieties, and 0 means no damage, or normal course of growth. […] The plants used in the greenhouse experiments were of the following species: [table]

[2] = test system: ECHCG; assay: greenhouse post-emergence herbicidal test; assay type: in vivo, Echinocloa crus-galli; conditions: post-emergence method, scale from 0 to 100
Method in brief: (§2)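 Post-emergence; plants at 3–15 cm, treated with aqueous suspension/emulsion of compound. 10–25 °C or 20–35 °C per species, 2–4 wk. Score 0 (no damage) to 100 (aerial parts destroyed).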

[3] = test system: ECHCG; assay: greenhouse pre-emergence herbicidal test; assay type: in vivo, Echinocloa crus-galli; conditions: pre-emergence method, scale from 0 to 100
Method in brief: (§3)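 Rated on a 0 (normal growth) to 100 (no emergence/total aerial kill) scale over a 2-4 week test period. Aqueous suspensions or emulsions applied by fine nozzles right after sowing, then plants held under hoods at 10-25 °C or 20-35 °C depending on species.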

[4] = test system: APESV; assay: greenhouse pre-emergence herbicidal test; assay type: in vivo, Apera spica-venti; conditions: pre-emergence method, scale from 0 to 100
Method in brief: as §3

[5] = test system: ALOMY; assay: greenhouse post-emergence herbicidal test; assay type: in vivo, Alopercurus myosuroides; conditions: post-emergence method, scale from 0 to 100
Method in brief: as §2

[6] = test system: AVEFA; assay: greenhouse post-emergence herbicidal test; assay type: in vivo, Avena fatua; conditions: post-emergence method, scale from 0 to 100
Excerpt: as §1

Structure (SMILES): Cc1ccccc1-c1cnc(OC(C)C)nc1C(=O)O [example 72]
- herbicidal activity against AMARE ([1]; application rate 500 g/ha): very good (a very good herbicidal activity is given at values of at least 85)
- herbicidal activity against ECHCG ([2]; application rate 500 g/ha): very good (a very good herbicidal activity is given at values of at least 85)

Structure (SMILES): CSc1ncc(-c2cc(C(F)(F)F)ccc2C)c(C(=O)O)n1 [example 93]
- herbicidal activity against AMARE ([1]; application rate 2000 g/ha): very good (a very good herbicidal activity is given at values of at least 85)

Structure (SMILES): CSc1ncc(-c2ccc(C)cc2C)c(C(=O)O)n1 [example 97]
- herbicidal activity against AMARE ([1]; application rate 2000 g/ha): very good (a very good herbicidal activity is given at values of at least 85)
- herbicidal activity against ECHCG ([2]; application rate 2000 g/ha): good (A good herbicidal activity is given at values of at least 70)

Structure (SMILES): CSc1ncc(-c2cccc(C)c2C)c(C(=O)O)n1 [example 102]
- herbicidal activity against AMARE ([1]; application rate 2000 g/ha): very good (a very good herbicidal activity is given at values of at least 85)

Structure (SMILES): COc1ccc(C(F)(F)F)cc1-c1cnc(SC)nc1C(=O)O [example 107]
- herbicidal activity against AMARE ([1]; application rate 2000 g/ha): very good (a very good herbicidal activity is given at values of at least 85)

Structure (SMILES): COc1ccc(OC)c(-c2cnc(SC)nc2C(=O)O)c1 [example 108]
- herbicidal activity against ECHCG ([3]; application rate 2000 g/ha): very good (a very good herbicidal activity is given at values of at least 85)
- herbicidal activity against AMARE ([1]; application rate 2000 g/ha): very good (a very good herbicidal activity is given at values of at least 85)

Structure (SMILES): CCSc1ccccc1-c1cnc(SC)nc1C(=O)O [example 113]
- herbicidal activity against AMARE ([1]; application rate 2000 g/ha): very good (a very good herbicidal activity is given at values of at least 85)

Structure (SMILES): Cc1ccccc1-c1cnc([S+](C)[O-])nc1C(=O)O (stereo not shown) [example 126]
- herbicidal activity against AMARE ([1]; application rate 2000 g/ha): very good (a very good herbicidal activity is given at values of at least 85)

Structure (SMILES): COC(=O)c1nc(C2CC2)ncc1-c1c(Br)ccc(OC)c1Cl [example 212]
- herbicidal activity against AMARE ([1]; application rate 500 g/ha): very good (a very good herbicidal activity is given at values of at least 85)
- herbicidal activity against ECHCG ([2]; application rate 500 g/ha): very good (a very good herbicidal activity is given at values of at least 85)

Structure (SMILES): O=C(SCc1ccccc1)c1nc(C2CC2)ncc1-c1ccccc1Cl [example 280]
- herbicidal activity against APESV ([4]; application rate 500 g/ha): very good (a very good herbicidal activity is given at values of at least 85)
- herbicidal activity against AMARE ([1]; application rate 500 g/ha): very good (a very good herbicidal activity is given at values of at least 85)

Structure (SMILES): C=Cc1ncc(-c2ccccc2Cl)c(C(=O)OC)n1 [example 292]
- herbicidal activity against AMARE ([1]; application rate 1000 g/ha): very good (a very good herbicidal activity is given at values of at least 85)

Structure (SMILES): COC(=O)c1nc(C2CC2(F)F)ncc1-c1ccccc1Cl (stereo not shown) [example 293]
- herbicidal activity against AMARE ([1]; application rate 1000 g/ha): good (A good herbicidal activity is given at values of at least 70)

Structure (SMILES): COC(=O)c1nc(C2CC2)ncc1-c1ccc(OC)cc1F [example 295]
- herbicidal activity against AMARE ([1]; application rate 500 g/ha): good (A good herbicidal activity is given at values of at least 70)

Structure (SMILES): COC(=O)c1nc(C2CC2)ncc1-c1ccccc1I [example 312]
- herbicidal activity against APESV ([4]; application rate 500 g/ha): very good (a very good herbicidal activity is given at values of at least 85)
- herbicidal activity against ECHCG ([3]; application rate 500 g/ha): very good (a very good herbicidal activity is given at values of at least 85)
- herbicidal activity against ALOMY ([5]; application rate 500 g/ha): very good (a very good herbicidal activity is given at values of at least 85)
- herbicidal activity against AVEFA ([6]; application rate 500 g/ha): very good (a very good herbicidal activity is given at values of at least 85)
- herbicidal activity against ECHCG ([2]; application rate 500 g/ha): very good (a very good herbicidal activity is given at values of at least 85)

Structure (SMILES): O=C(O)c1nc(C(F)(F)F)ncc1-c1ccccc1Cl [example 315]
- herbicidal activity against APESV ([4]; application rate 1000 g/ha): good (A good herbicidal activity is given at values of at least 70)
- herbicidal activity against ECHCG ([3]; application rate 1000 g/ha): very good (a very good herbicidal activity is given at values of at least 85)
- herbicidal activity against ALOMY ([5]; application rate 1000 g/ha): good (A good herbicidal activity is given at values of at least 70)
- herbicidal activity against AVEFA ([6]; application rate 1000 g/ha): good (A good herbicidal activity is given at values of at least 70)
- herbicidal activity against ECHCG ([2]; application rate 1000 g/ha): good (A good herbicidal activity is given at values of at least 70)
